From patent publication US5120720A, “Preparation of lipophile:hydroxypropylcyclodextrin complexes by a method using co-solubilizers” (priority 1990, dated 1992)
Like-named read-outs stand apart in the source and are kept apart here.

Legend:
[1] = read-out: Stability constant of the complex with α-cyclodextrin, cited from earlier work
[2] = read-out: Stability constant of the complex with β-cyclodextrin, cited from earlier work
[3] = β-cyclodextrin, aqueous sodium hydroxide then phosphoric acid (U.S. Pat. No. 4,883,785, Example 3); cited from earlier work
[4] = assay type: physicochemical
Description: The methods of preparation herein disclosed were also used successfully with the ethanol-soluble peptides such as gramicidin S, complexed with hydroxypropyl-β-cyclodextrin (Example 4). It was also used to prepare the gramicidin S:hydroxypropyl-α-cyclodextrin preparation (Example 5) and gramicidin S:hydroxypropyl-γ-cyclodextrin preparation (Example 6).
The processes disclosed herein differ substantially from those described by Szejtli (p. 268) for the preparation of crystalline β-cyclodextrin:vitamin D3 complexes, which were prepared using organic solvents. In this regard, the procedure described by Szejtli consists of the co-dissolution of components, i.e., of crystalline β-cyclodextrin and vitamin D3, at 50° C. in 60-65% aqueous ethanol, followed by cooling of the clear solution during which crystalline complex of the vitamin precipitates. Moreover, attempts to use Szejtli's procedure for the above complexes were not successful, since concentration of ethanol in the range 60-65% solubilized steroids only incompletely and no precipitation occurred.

[5] = Solubility of freeze-dried complexes or residues in water, and stability of the solutions; assay type: physicochemical; details: attempted complex preparation
Protocol: For a number of applications, complexes in powdery form as prepared by freeze-drying (lyophilizing), are preferable to the glassy residues such as are obtained by the above discussed procedure. Therefore, to obtain complexes in a powdery form, the glassy preparations were dissolved in water (final concentration of hydroxypropyl-β-cyclodextrin was about 10% W/W), sterilized by ultrafiltration and freeze-dried. All of the following exemplary preparations of steroids so prepared, dissolved fully. Moreover, the complexes so obtained were again amorphous and could be tabletted by direct compression.
The solubility of freeze-dried complexes such as those provided below was invariably high. For example, all the complexes of steroids in Examples 1-3 dissolved smoothly in water up to 40% W/W concentration, and these solutions were stable for at least 24 hours.
[…] Full dissolution occurred in five minutes; the solution was then filtered through a membrane filter (pore size 0.22 μm). The filtrate was evaporated at room temperature in vacuo to dryness leaving a glassy residue. […] The yield was 85%.

[6] = source (a) M. Suzuki et al. 1988
[7] = source (b) Y. Matsui and K. Mochida 1979
[8] = source (d) W. Hirsch et al. 1987

In the case of `CC(C)(C)CO` [2,2-dimethyl-1-propanol], the Kd [1, 6] is given as 33.3 mM, the Kd [2, 6] is given as 1.52 mM and the Kd [2, 7] is given as 1.72 mM.
In the case of `N` [ammonia], the Kd [1, 8] is listed as 0.0164 mM and the Kd [2, 8] is listed as 0.0667 mM.
In the case of `C[C@@H]1[C@H](O)[C@@H](C)/C=C/C=C/C=C/C=C/C=C/C=C/C=C/[C@H](O[C@@H]2O[C@H](C)[C@@H](O)[C@H](N)[C@@H]2O)C[C@@H]2O[C@](O)(C[C@@H](O)C[C@@H](O)[C@H](O)CC[C@@H](O)C[C@@H](O)CC(=O)O[C@H]1C)C[C@H](O)[C@H]2C(=O)O` [amphotericin B], the Starting drug solubilized [3] is given as “about 1%”.
For `CCCCO` [n-butanol], the Kd [1, 6] is listed as 9.09 mM and the Kd [1, 7] is listed as 11.2 mM.
In the case of `CCCCCO` [n-pentanol], the Kd [1, 6] is listed as 3.33 mM, the Kd [1, 7] is listed as 3.1 mM and the Kd [2, 6] is listed as 11.5 mM. The Kd [2, 7] was 15.9 mM.
For `CCCO` [n-propanol], the Kd [1, 6] is given as 50 mM and the Kd [1, 7] is given as 43.5 mM.
In the case of `CC(C)(C)O` [t-butanol], the Kd [2, 6] is listed as 23.8 mM and the Kd [2, 7] is listed as 20.8 mM.
With `OC[C@H]1O[C@@H]2O[C@H]3[C@H](O)[C@@H](O)[C@@H](O[C@H]4[C@H](O)[C@@H](O)[C@@H](O[C@H]5[C@H](O)[C@@H](O)[C@@H](O[C@H]6[C@H](O)[C@@H](O)[C@@H](O[C@H]7[C@H](O)[C@@H](O)[C@@H](O[C@H]8[C@H](O)[C@@H](O)[C@@H](O[C@H]1[C@H](O)[C@H]2O)O[C@@H]8CO)O[C@@H]7CO)O[C@@H]6CO)O[C@@H]5CO)O[C@@H]4CO)O[C@@H]3CO` [β-cyclodextrin] the “Solubility in 75% ethanol” value [4] was “low solubility”.
In the case of gramicidin D, the “Solubility in water of solid residue after evaporation of ethanol 95% solution” value [5] is reported as “insoluble in water”, the “Dissolution in ethanol 75%” value ([4]; ethanol 75%) is reported as “did not dissolve” and the “Dissolution in ethanol 95%” value ([4]; ethanol 95%) is reported as “dissolved”.
